For test [1], the target named is T1, Interstitial collagenase (Homo sapiens) (UniProt P03956).
T1 sequence (whole entry): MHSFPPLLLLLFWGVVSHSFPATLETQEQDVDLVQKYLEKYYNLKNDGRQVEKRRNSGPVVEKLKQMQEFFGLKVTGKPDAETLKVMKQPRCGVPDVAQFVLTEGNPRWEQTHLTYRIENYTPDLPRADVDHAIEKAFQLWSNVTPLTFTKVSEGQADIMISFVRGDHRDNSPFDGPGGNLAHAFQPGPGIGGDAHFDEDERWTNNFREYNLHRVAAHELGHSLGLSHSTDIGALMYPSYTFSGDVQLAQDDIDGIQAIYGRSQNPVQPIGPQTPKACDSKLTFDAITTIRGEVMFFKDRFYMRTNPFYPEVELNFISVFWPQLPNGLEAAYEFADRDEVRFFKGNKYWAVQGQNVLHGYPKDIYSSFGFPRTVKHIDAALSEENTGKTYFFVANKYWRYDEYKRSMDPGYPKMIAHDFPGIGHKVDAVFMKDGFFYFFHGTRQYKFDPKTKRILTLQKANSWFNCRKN
As to the kind of experiment: Inhibition of Matrix metalloprotease-1 at 1 uM (inactive).

For test [2], the target named is T2, Matrix metalloproteinase-9 (Homo sapiens, UniProt P14780). As to the kind of experiment: Inhibitory activity against Matrix metalloprotease-9.
T2 sequence (P14780 whole entry): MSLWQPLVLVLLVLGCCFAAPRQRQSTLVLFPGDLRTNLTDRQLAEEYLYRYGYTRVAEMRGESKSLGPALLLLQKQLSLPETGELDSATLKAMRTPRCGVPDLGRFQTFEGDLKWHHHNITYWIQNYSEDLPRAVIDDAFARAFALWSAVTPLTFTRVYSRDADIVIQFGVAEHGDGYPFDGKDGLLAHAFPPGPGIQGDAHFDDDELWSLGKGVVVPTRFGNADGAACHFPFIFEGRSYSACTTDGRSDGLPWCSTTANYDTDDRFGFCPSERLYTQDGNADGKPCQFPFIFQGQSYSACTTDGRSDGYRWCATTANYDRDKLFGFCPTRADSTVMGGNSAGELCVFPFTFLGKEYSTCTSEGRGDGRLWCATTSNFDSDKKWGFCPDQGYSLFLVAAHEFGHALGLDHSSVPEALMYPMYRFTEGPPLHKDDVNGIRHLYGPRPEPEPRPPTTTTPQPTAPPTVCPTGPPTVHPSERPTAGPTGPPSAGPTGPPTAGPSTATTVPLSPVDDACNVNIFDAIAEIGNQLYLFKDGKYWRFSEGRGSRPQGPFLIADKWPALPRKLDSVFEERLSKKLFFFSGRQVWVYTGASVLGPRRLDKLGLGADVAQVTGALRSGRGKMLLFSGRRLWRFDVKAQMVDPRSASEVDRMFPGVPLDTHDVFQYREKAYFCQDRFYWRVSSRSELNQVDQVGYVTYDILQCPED
A further test addresses Collagenase 3 (Homo sapiens, UniProt P45452).
Test [3] has as its target Disintegrin and metalloproteinase domain-containing protein 17 (Homo sapiens, UniProt P78536).
Description: Inhibition of TNF-alpha converting enzyme (TACE)
For test [4], the species on record is Bos taurus. The test is described as follows: animal or person. The settings on record: po, read-out: Inhibition.
The target of another test is T3, Interstitial collagenase (Homo sapiens, UniProt P03956).
T3 sequence (P03956 whole entry): T1 sequence (whole entry)
The test is described as follows: Inhibitory activity against Matrix metalloprotease-1.

Test [5] is filed under the species Bos taurus. As to the kind of experiment: Inhibition of collagen degradation in a bovine articular cartilage assay. In kind it is functional.
The target of test [6] is T2, Matrix metalloproteinase-9. As to the kind of experiment: Dose at which the compound was equipotent with CGS-27023 against matrix metalloprotease-9 in the dialysis tubing implant assay. Format: functional.
Test [7] deals with T2, Matrix metalloproteinase-9. As to the kind of experiment: Tested the po dose effective against Matrix metalloprotease-9 in the dialysis tubing implant assay. Format: functional, organism-based.
The next test concerns Rattus norvegicus. The test is described as follows: In vivo inhibition of collagen degradation in a rat sponge wrapped cartilage model at a dose of 50 mg/kg ip. In kind it is functional. As to conditions: route intraperitoneal.
Test [8] has as its target T1, Interstitial collagenase (Homo sapiens). The test is described as follows: Inhibition of Matrix metalloprotease-1 at 1 uM.
The target is the same in test [9]. As to the kind of experiment: Inhibition of Matrix metalloprotease-1 (inactive).

Molecules are shown by their SMILES. Calls of active or inactive are those of the source.

Chain of Disintegrin and metalloproteinase domain-containing protein 17 (P78536 whole entry, the tested form may be a part): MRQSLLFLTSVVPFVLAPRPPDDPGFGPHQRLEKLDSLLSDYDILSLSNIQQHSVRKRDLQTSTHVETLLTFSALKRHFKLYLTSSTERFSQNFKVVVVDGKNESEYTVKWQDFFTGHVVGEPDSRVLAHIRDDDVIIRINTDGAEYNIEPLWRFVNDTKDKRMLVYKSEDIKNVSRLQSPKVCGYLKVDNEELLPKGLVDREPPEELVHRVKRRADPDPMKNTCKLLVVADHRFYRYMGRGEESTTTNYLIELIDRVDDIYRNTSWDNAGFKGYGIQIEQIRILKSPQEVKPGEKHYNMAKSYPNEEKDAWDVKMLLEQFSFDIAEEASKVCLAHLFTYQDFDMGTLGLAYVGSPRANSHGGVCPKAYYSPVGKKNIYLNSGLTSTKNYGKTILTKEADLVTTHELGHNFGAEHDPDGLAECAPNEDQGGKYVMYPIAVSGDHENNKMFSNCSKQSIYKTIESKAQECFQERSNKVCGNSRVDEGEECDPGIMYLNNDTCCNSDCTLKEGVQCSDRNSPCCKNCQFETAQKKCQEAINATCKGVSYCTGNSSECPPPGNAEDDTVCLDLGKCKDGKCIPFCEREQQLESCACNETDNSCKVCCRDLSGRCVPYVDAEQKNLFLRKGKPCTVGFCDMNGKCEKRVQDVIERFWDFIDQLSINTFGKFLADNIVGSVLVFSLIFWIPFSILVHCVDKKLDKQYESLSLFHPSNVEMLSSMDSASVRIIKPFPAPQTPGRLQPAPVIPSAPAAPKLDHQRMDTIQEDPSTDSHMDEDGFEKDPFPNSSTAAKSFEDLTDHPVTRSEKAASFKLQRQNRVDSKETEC
Description for Collagenase 3: Inhibitory activity against Matrix metalloprotease-13

By inhibition is commonly meant the change of the read-out against control, counted positive when it falls. On to `COc1ccc(S(=O)(=O)N(Cc2ccccc2)c2cccc(C(=O)NO)c2)cc1`, for which, in [1], the inhibition entry was “inactive”.

By IC50 is commonly meant the midpoint of a concentration-inhibition curve. A high value points to weaker potency. For `COc1ccc(S(=O)(=O)N(Cc2ccccc2)c2c(OCC(=O)NO)cccc2C(=O)NO)cc1`, the half-inhibitory concentration (IC50) is 2 nM in [2], 1 nM against Collagenase 3 and 81 nM in test [3].

Turning to `COc1ccc(S(=O)(=O)N(Cc2cccnc2)[C@@H](C(=O)NO)C(C)C)cc1` [CGS-27023A], the inhibition in vivo at 50 mg/kg in the test listed under Bos taurus [4] amounted to 52%.

In [2], `COC(=O)c1cccc(C(=O)NO)c1N(Cc1cccnc1)S(=O)(=O)c1ccc(OC)cc1` displayed an IC50 of 6 nM.

Regarding `COc1ccc(S(=O)(=O)N(Cc2ccccc2)c2c(C(=O)NO)cccc2[N+](=O)[O-])cc1`, the 50% inhibitory concentration (IC50) against Interstitial collagenase amounted to 202 nM; in test [2] it was 13 nM; against Collagenase 3, 42 nM.

As usually defined, the Inhibition is the share of the control response that was lost under treatment. In general, ED50 refers to the midpoint of the dose-response relation. As to `COc1ccc(S(=O)(=O)N(Cc2cccnc2)c2c(C)cccc2C(=O)NO)cc1`, the Inhibition in the test filed under Bos taurus [5] stood at 49%. This compound also yielded a concentration for half-maximal inhibition (IC50) on Interstitial collagenase of 143 nM. Further, in test [6], the DOSE came to 50 mg/kg. In addition, the 50% effect level in [7] (ED50) was put at a dose of 33 mg/kg. This compound also gave an inhibition in vivo at 50 mg/kg in the test with Rattus norvegicus of 51%.

On Interstitial collagenase, `COc1ccc(S(=O)(=O)N(Cc2ccccc2)c2c(OC)cccc2C(=O)NO)cc1` came in with a concentration for half-maximal inhibition (IC50) of 520 nM.

Turning to `COc1ccc(S(=O)(=O)N(Cc2ccccc2)c2c(C(=O)NO)cccc2N(C)C)cc1`, the inhibition in test [8] was found to be 19%.

With `COc1ccc(S(=O)(=O)N(Cc2ccccc2)c2c(OC(C)(C)C(=O)NO)cccc2C(=O)NO)cc1`, the concentration for half-maximal inhibition (IC50) at Interstitial collagenase was determined as 597 nM; in test [2] it was 4 nM.

Regarding `COc1ccc(S(=O)(=O)N(Cc2ccccc2)c2ccc(C(=O)NO)cc2)cc1`, the inhibition entry in [9] is “inactive”.

The compound `COc1ccc(S(=O)(=O)N(Cc2ccccc2)c2c(C(=O)NO)cccc2C(F)(F)F)cc1` gave an inhibition in test [8] of 41%. On Collagenase 3, this compound showed an IC50 of 136 nM.

The values are drawn from ChEMBL document CHEMBL1133789, “The discovery of anthranilic acid-based MMP inhibitors. Part 1: SAR of the 3-position” (Bioorg Med Chem Lett, 2001).
